Test [1] deals with MOLM-13. Briefly: Cell growth inhibition, MOLM-13 leukemia cells (CellTiter-Glo). Particulars: Homo sapiens, MOLM-13, 96 h; 4 days; read-out: IC50 (nM) MOLM-13 Cell Line (CellTiter-Glo assay). The class given is cell-based. Summed up: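 MOLM-13 leukemia cells treated with compounds; viability read by CellTiter-Glo luminescence after 10-20 min reagent incubation at room temperature. IC50 derived from luminescent signal.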

For test [2], the target named is T1, recombinant BRD4 BD1 (Homo sapiens, UniProt O60885).
T1 construct: for recombinant BRD4 BD1 and BRD4 BD2 proteins
The test can be described thus: Competitive fluorescence-polarization (FP) binding assay, BRD4 BD1. Further: probe 1.5 nM. Particulars: competitive FP assay; protein 10 nM, probe […]; read-out: IC50 (nM) BRD4 BD1. The method, boiled down:
(§1)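 FP competition with FAM-labelled probe (ZBA248 or BRD-1F) against preincubated protein/probe complex; BD1 at 10 nM and BD2 at 6 nM final, in 100 mM potassium phosphate pH 6.5, 0.01% Triton X-100. 30 min, room temperature. IC50 by nonlinear regression; Ki also derived, using probe Kd from protein saturation.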

The target of test [3] is T2, recombinant BRD4 BD2 (Homo sapiens, UniProt O60885).
T2 construct: for recombinant BRD4 BD1 and BRD4 BD2 proteins
Briefly: Competitive fluorescence-polarization (FP) binding assay, BRD4 BD2. Further: probe 1.5 nM. Particulars: competitive FP assay; protein 6 nM, probe […]; read-out: IC50 (nM) BRD4 BD2. The method, boiled down:
as §1

The test system of test [4] is MDA-MB-436. The test can be described thus: Cell growth inhibition, MDA-MB-436 breast cancer cells (WST-8). Particulars: Homo sapiens, MDA-MB-436, 96 h; 4 days; read-out: IC50 (nM) MDA-MB-436 Cell Line (WST assay). In kind it is cell-based. The method, boiled down:
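IC50 was computed from WST-8-based cell counting in MDA-MB-436 cells, with absorbance read at 450 nm.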

Molecules are shown by their SMILES.

For `COc1cc2c(cc1-c1c(C)noc1C)[nH]c1nc(C)nc(Nc3cc(F)cc(Cl)c3)c12` [Cpd. No. 225, N-(3-chloro-5-fluorophenyl)-7-(3,5-dimethylisoxazol-4-yl)-6-methoxy-2-methyl-9H-pyrimido[4,5-b]indol-4-amine], the IC50 is 189 nM in test [1], 213 nM in test [2], 108 nM in test [3] and 315 nM in test [4].

`COc1cc2c(cc1-c1c(C)noc1C)[nH]c1nc(C)nc(Nc3ccccc3)c12` [Cpd. No. 226, 7-(3,5-dimethylisoxazol-4-yl)-6-methoxy-2-methyl-N-phenyl-9H-pyrimido[4,5-b]indol-4-amine]: the IC50 in test [1] is 94 nM; in test [2], 21 nM; in test [3], 20 nM; in test [4] it was 91 nM.

As to `COc1cc2c(cc1-c1c(C)noc1C)[nH]c1nc(C)nc(Nc3cn(C)c4ncccc34)c12` [Cpd. No. 227, 7-(3,5-dimethylisoxazol-4-yl)-6-methoxy-2-methyl-N-(1-methyl-1H-pyrrolo[2,3-b]pyridin-3-yl)-9H-pyrimido[4,5-b]indol-4-amine], the 50% inhibitory concentration (IC50) in test [1] was 31 nM; in test [2] it was 14 nM; in test [3], 22 nM; in test [4] it was 62 nM.

Turning to `COc1cc2c(cc1-c1c(C)noc1C)[nH]c1nc(C)nc(Nc3cccc4nc(C)ccc34)c12` [Cpd. No. 228, 7-(3,5-dimethylisoxazol-4-yl)-6-methoxy-2-methyl-N-(2-methylquinolin-5-yl)-9H-pyrimido[4,5-b]indol-4-amine], the IC50 in test [1] was 87 nM; in test [2] it was 25 nM; in test [3] it was 26 nM; in test [4], 129 nM.

With `COc1cc2c(cc1-c1c(C)noc1C)[nH]c1nc(C)nc(Nc3cccc4ncsc34)c12` [Cpd. No. 229, N-(7-(3,5-dimethylisoxazol-4-yl)-6-methoxy-2-methyl-9H-pyrimido[4,5-b]indol-4-yl)benzo[d]thiazol-7-amine], the IC50 in test [1] was determined as 69 nM; in test [2], 24 nM; in test [3], 22 nM; in test [4] it was 88 nM.

For the compound `COc1cc2c(cc1-c1c(C)noc1C)[nH]c1nc(C)nc(Nc3cccc(N(C)C)c3)c12` [Cpd. No. 230, N1-(7-(3,5-dimethylisoxazol-4-yl)-6-methoxy-2-methyl-9H-pyrimido[4,5-b]indol-4-yl)-N3,N3-dimethylbenzene-1,3-diamine], the IC50 worked out at 71 nM in test [1], 13 nM in test [2], 8 nM in test [3] and 123 nM in test [4].

As for `COc1cc2c(cc1-c1c(C)noc1C)[nH]c1nc(C)nc(Nc3cccc4c3CCN4)c12` [Cpd. No. 231, 7-(3,5-dimethylisoxazol-4-yl)-N-(indolin-4-yl)-6-methoxy-2-methyl-9H-pyrimido[4,5-b]indol-4-amine], the 50% inhibitory concentration (IC50) stood at 28 nM in test [1], 35 nM in test [2], 44 nM in test [3] and 79 nM in test [4].

Turning to `COc1cc2c(cc1-c1c(C)noc1C)[nH]c1nc(C)nc(Nc3ccc4c(c3)N(C)CC4)c12` [Cpd. No. 232, 7-(3,5-dimethylisoxazol-4-yl)-6-methoxy-2-methyl-N-(1-methylindolin-6-yl)-9H-pyrimido[4,5-b]indol-4-amine], the half-inhibitory concentration (IC50) in test [1] turned out to be 62 nM; in test [2] it was 29 nM; in test [3] it was 52 nM; in test [4], 238 nM.

Consider `COc1cc2c(cc1-c1c(C)noc1C)[nH]c1nc(C)nc(Nc3ccc4cc[nH]c4c3)c12` [Cpd. No. 233, 7-(3,5-dimethylisoxazol-4-yl)-N-(1H-indol-6-yl)-6-methoxy-2-methyl-9H-pyrimido[4,5-b]indol-4-amine], for which the IC50 in test [1] worked out at 101 nM; in test [2] it was 69 nM; in test [3] it was 38 nM; in test [4], 222 nM.

With `COc1cc2c(cc1-c1c(C)noc1C)[nH]c1nc(C)nc(Nc3cccc4c3CCO4)c12` [Cpd. No. 234, N-(2,3-dihydrobenzofuran-4-yl)-7-(3,5-dimethylisoxazol-4-yl)-6-methoxy-2-methyl-9H-pyrimido[4,5-b]indol-4-amine], the IC50 is 34 nM in test [1], 25 nM in test [2], 25 nM in test [3] and 139 nM in test [4].

Consider `COc1cc2c(cc1-c1c(C)noc1C)[nH]c1nc(C)nc(Nc3cccc4c3cnn4C)c12` [Cpd. No. 235, 7-(3,5-dimethylisoxazol-4-yl)-6-methoxy-2-methyl-N-(1-methyl-1H-indazol-4-yl)-9H-pyrimido[4,5-b]indol-4-amine], for which the IC50 was 74 nM in test [1], 41 nM in test [2], 52 nM in test [3] and 146 nM in test [4].

Take `COc1cc2c(cc1-c1c(C)noc1C)[nH]c1nc(C)nc(Nc3cccc4c3ccn4C)c12` [Cpd. No. 236, 7-(3,5-dimethylisoxazol-4-yl)-6-methoxy-2-methyl-N-(1-methyl-1H-indol-4-yl)-9H-pyrimido[4,5-b]indol-4-amine]: the IC50 in test [1] came out at 49 nM; in test [2] it was 14 nM; in test [3], 59 nM; in test [4], 117 nM.

In the case of `COc1cc2c(cc1-c1c(C)noc1C)[nH]c1nc(C)nc(Nc3cc(C)cc(C)c3)c12` [Cpd. No. 237, 7-(3,5-dimethylisoxazol-4-yl)-N-(3,5-dimethylphenyl)-6-methoxy-2-methyl-9H-pyrimido[4,5-b]indol-4-amine], the IC50 was found to be 41 nM in test [1], 10 nM in test [2], 5 nM in test [3] and 72 nM in test [4].

For the compound `COc1cc2c(cc1-c1c(C)noc1C)[nH]c1nc(C)nc(Nc3cc(C)ccc3C)c12` [Cpd. No. 238, 7-(3,5-dimethylisoxazol-4-yl)-N-(2,5-dimethylphenyl)-6-methoxy-2-methyl-9H-pyrimido[4,5-b]indol-4-amine], the half-inhibitory concentration (IC50) in test [1] is 39 nM; in test [2] it was 5 nM; in test [3] it was 3 nM; in test [4] it was 61 nM.

With `COc1cc2c(cc1-c1c(C)noc1C)[nH]c1nc(C)nc(Nc3c(C4CC4)nn(C)c3C3CC3)c12` [Cpd. No. 239, N-(3,5-dicyclopropyl-1-methyl-1H-pyrazol-4-yl)-7-(3,5-dimethylisoxazol-4-yl)-6-methoxy-2-methyl-9H-pyrimido[4,5-b]indol-4-amine], the IC50 in test [1] came out at 22 nM; in test [2], 19 nM; in test [3], 28 nM; in test [4] it was 43 nM.

Consider `CCc1nn(C)c(CC)c1Nc1nc(C)nc2[nH]c3cc(-c4c(C)noc4C)c(OC)cc3c12` [Cpd. No. 240, N-(3,5-diethyl-1-methyl-1H-pyrazol-4-yl)-7-(3,5-dimethylisoxazol-4-yl)-6-methoxy-2-methyl-9H-pyrimido[4,5-b]indol-4-amine], for which the half-maximal inhibitory concentration (IC50) in test [1] came to 20 nM; in test [2], 13 nM; in test [3] it was 20 nM; in test [4], 46 nM.

As to `CCc1nn(CC)c(CC)c1Nc1nc(C)nc2[nH]c3cc(-c4c(C)noc4C)c(OC)cc3c12` [Cpd. No. 241, 7-(3,5-dimethylisoxazol-4-yl)-6-methoxy-2-methyl-N-(1,3,5-triethyl-1H-pyrazol-4-yl)-9H-pyrimido[4,5-b]indol-4-amine], the concentration for half-maximal inhibition (IC50) in test [1] stood at 33 nM; in test [2] it was 16 nM; in test [3], 29 nM; in test [4], 76 nM.

Turning to `COc1cc2c(cc1-c1c(C)noc1C)[nH]c1nc(C)nc(Nc3c(C(C)C)nn(C)c3C(C)C)c12` [Cpd. No. 242, N-(3,5-diisopropyl-1-methyl-1H-pyrazol-4-yl)-7-(3,5-dimethylisoxazol-4-yl)-6-methoxy-2-methyl-9H-pyrimido[4,5-b]indol-4-amine], the IC50 amounted to 24 nM in test [1], 9 nM in test [2], 12 nM in test [3] and 47 nM in test [4].

As for `COc1cc2c(cc1-c1c(C)noc1C)[nH]c1nc(C)nc(Nc3ccccc3C(C)C)c12` [Cpd. No. 243, 7-(3,5-dimethylisoxazol-4-yl)-N-(2-isopropylphenyl)-6-methoxy-2-methyl-9H-pyrimido[4,5-b]indol-4-amine], the IC50 in test [1] was 61 nM; in test [2] it was 15 nM; in test [3], 14 nM; in test [4] it was 162 nM.

Take `COc1cc2c(cc1-c1c(C)noc1C)[nH]c1nc(C)nc(Nc3ccnc4ccccc34)c12` [Cpd. No. 247, 7-(3,5-dimethylisoxazol-4-yl)-6-methoxy-2-methyl-N-(quinolin-4-yl)-9H-pyrimido[4,5-b]indol-4-amine]: the IC50 in test [1] was determined as 113 nM; in test [2], 165 nM; in test [3] it was 121 nM; in test [4], 115 nM.

With `COc1cc2c(cc1-c1c(C)noc1C)[nH]c1nc(C)nc(Nc3c(F)c(C4CC4)nn3C)c12` [Cpd. No. 249, N-(3-cyclopropyl-4-fluoro-1-methyl-1H-pyrazol-5-yl)-7-(3,5-dimethylisoxazol-4-yl)-6-methoxy-2-methyl-9H-pyrimido[4,5-b]indol-4-amine], the IC50 in test [1] stood at 159 nM; in test [2], 29 nM; in test [3], 99 nM; in test [4], 302 nM.

The values are drawn from patent US9580430B2, “9H-pyrimido[4,5-B]indoles and related analogs as BET bromodomain inhibitors” (THE REGENTS OF THE UNIVERSITY OF MICHIGAN, priority 2014, dated 2017).
